# In PubChem BioAssay AID1963874 (Molecular Pharmacology Branch, DTP, NCI, 2024):
# Test system: 253994-281-T-J1-PDC KRAS-mutant spheroids with HUVEC/MSC, viability
# Test: Anticancer human tumor 253994-281-T-J1-PDC patient-derived colorectal carcinoma cell line growth inhibition [KRAS2]
# Details: for IC50: curve of first compound; for viability, T/C: stronger effect = lower value
# In short: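 Combination screen of spheroid viability in tumor-cell co-cultures with endothelial (HUVEC) and mesenchymal stem cell stroma. Each agent was tested in half-log dilutions, topping at clinical Cmax or at 10 microM without a known Cmax.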
# [1] = second compound 0.1 µM, first compound 0.0316 µM
# [2] = second compound 0.1 µM, first compound 0.1 µM
# [3] = second compound 0.1 µM, first compound 0.316 µM
# [4] = second compound 0.1 µM, first compound 1 µM
# [5] = second compound 0.1 µM, first compound 3.16 µM
# [6] = second compound 0.1 µM, first compound 10 µM
# [7] = second compound 0.316 µM, first compound 0.0316 µM
# [8] = second compound 0.316 µM, first compound 0.1 µM
# [9] = second compound 0.316 µM, first compound 0.316 µM
# [10] = second compound 0.316 µM, first compound 1 µM
# [11] = second compound 0.316 µM, first compound 3.16 µM
# [12] = second compound 0.316 µM, first compound 10 µM
# [13] = second compound 1 µM, first compound 0.0316 µM
# [14] = second compound 1 µM, first compound 0.1 µM
# [15] = second compound 1 µM, first compound 0.316 µM
# [16] = second compound 1 µM, first compound 1 µM
# [17] = second compound 1 µM, first compound 3.16 µM
# [18] = second compound 1 µM, first compound 10 µM
# [19] = second compound 3.16 µM, first compound 0.0316 µM
# [20] = second compound 3.16 µM, first compound 0.1 µM
# [21] = second compound 3.16 µM, first compound 0.316 µM
# [22] = second compound 3.16 µM, first compound 1 µM
# [23] = second compound 3.16 µM, first compound 3.16 µM
# [24] = second compound 3.16 µM, first compound 10 µM
# [25] = second compound 10 µM, first compound 0.0316 µM
# [26] = second compound 10 µM, first compound 0.1 µM
# [27] = second compound 10 µM, first compound 0.316 µM
# [28] = second compound 10 µM, first compound 1 µM
# [29] = second compound 10 µM, first compound 3.16 µM
# [30] = second compound 10 µM, first compound 10 µM
# [31] = second compound 0.1 µM, first compound 0.00316 µM
# [32] = second compound 0.1 µM, first compound 0.01 µM
# [33] = second compound 0.316 µM, first compound 0.00316 µM
# [34] = second compound 0.316 µM, first compound 0.01 µM
# [35] = second compound 1 µM, first compound 0.00316 µM
# [36] = second compound 1 µM, first compound 0.01 µM
# [37] = second compound 3.16 µM, first compound 0.00316 µM
# [38] = second compound 3.16 µM, first compound 0.01 µM
# [39] = second compound 10 µM, first compound 0.00316 µM
# [40] = second compound 10 µM, first compound 0.01 µM
# 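Note: spheroids exposed to agents for seven days before readout.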
# 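Throughout, for viability, T/C: percent of DMSO vehicle control viability.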
SMILES,IC50 (second compound 0.1 µM),IC50 (second compound 0.316 µM),IC50 (second compound 1 µM),IC50 (second compound 3.16 µM),IC50 (second compound 10 µM),"viability, T/C [1]","viability, T/C [2]","viability, T/C [3]","viability, T/C [4]","viability, T/C [7]","viability, T/C [8]","viability, T/C [9]","viability, T/C [10]","viability, T/C [13]","viability, T/C [14]","viability, T/C [15]","viability, T/C [19]","viability, T/C [20]","viability, T/C [25]","viability, T/C [26]",further results
CC(C)NCC(C(=O)N1CCN(c2ncnc3c2C(C)CC3O)CC1)c1ccc(Cl)cc1 (stereo not given) + COc1cc2nc(C)nc(NC(C)c3cc(N)cc(C(F)(F)F)c3)c2cc1OC1CCOC1,> 10 µM,> 10 µM,> 10 µM,> 10 µM,> 10 µM,86.1%,97.9%,92.5%,94.6%,86.3%,85.7%,78.7%,87.6%,84.3%,83.4%,94.1%,83.2%,87.4%,67.9%,79.8%,"viability, T/C [5]: 93%; viability, T/C [6]: 97.1%; viability, T/C [11]: 82%; viability, T/C [12]: 90.2%; viability, T/C [16]: 86.2%; viability, T/C [17]: 92.4%; viability, T/C [18]: 96.4%; viability, T/C [21]: 85.9%; viability, T/C [22]: 94.2%; viability, T/C [23]: 92.3%; viability, T/C [24]: 74.7%; viability, T/C [27]: 85.5%; viability, T/C [28]: 79.5%; viability, T/C [29]: 71.2%; viability, T/C [30]: 83.7%"
CCN1CCN(Cc2ccc(Nc3ncc(F)c(-c4cc(F)c5nc(C)n(C(C)C)c5c4)n3)nc2)CC1 + COc1cc2nc(C)nc(NC(C)c3cc(N)cc(C(F)(F)F)c3)c2cc1OC1CCOC1,0.39 µM,0.317 µM,0.321 µM,0.236 µM,0.162 µM,83%,62.9%,55.3%,38.9%,74.3%,64.4%,51.3%,33.7%,74.7%,61.8%,53.3%,70.8%,57.6%,72.7%,53.8%,"viability, T/C [31]: 102%; viability, T/C [32]: 93.3%; viability, T/C [33]: 79.6%; viability, T/C [34]: 86.8%; viability, T/C [35]: 80.4%; viability, T/C [36]: 90.5%; viability, T/C [16]: 35.5%; viability, T/C [37]: 90.2%; viability, T/C [38]: 73.9%; viability, T/C [21]: 53.3%; viability, T/C [22]: 29.4%; viability, T/C [39]: 78%; viability, T/C [40]: 86.3%; viability, T/C [27]: 40.6%; viability, T/C [28]: 8.08%"
CCNC(=O)CC1N=C(c2ccc(Cl)cc2)c2cc(OC)ccc2-n2c(C)nnc21 (stereo not given) + COc1cc2nc(C)nc(NC(C)c3cc(N)cc(C(F)(F)F)c3)c2cc1OC1CCOC1,> 10 µM,> 10 µM,7.76 µM,5.93 µM,3.25 µM,99%,93.9%,78.1%,76.5%,87.5%,97.6%,77.9%,68.4%,92.9%,95.4%,79.8%,86.3%,89.1%,82.6%,83.2%,"viability, T/C [5]: 70.5%; viability, T/C [6]: 71.8%; viability, T/C [11]: 73%; viability, T/C [12]: 51.1%; viability, T/C [16]: 69.5%; viability, T/C [17]: 61%; viability, T/C [18]: 46.7%; viability, T/C [21]: 78.5%; viability, T/C [22]: 70.3%; viability, T/C [23]: 52.7%; viability, T/C [24]: 47.2%; viability, T/C [27]: 87.1%; viability, T/C [28]: 62.9%; viability, T/C [29]: 53.4%; viability, T/C [30]: 31.6%"
Cn1ncnc1[C@H]1c2n[nH]c(=O)c3cc(F)cc(c23)N[C@@H]1c1ccc(F)cc1 + COc1cc2nc(C)nc(NC(C)c3cc(N)cc(C(F)(F)F)c3)c2cc1OC1CCOC1,> 0.1 µM,> 0.1 µM,> 0.1 µM,> 0.1 µM,> 0.1 µM,92.5%,78.8%,–,–,91.9%,78.1%,–,–,87.1%,85.3%,–,77.2%,85.5%,83.7%,68.3%,"viability, T/C (second compound 0.1 µM, first compound 0.000316 µM): 92.5%; viability, T/C (second compound 0.1 µM, first compound 0.001 µM): 95.7%; viability, T/C [31]: 79%; viability, T/C [32]: 90.8%; viability, T/C (second compound 0.316 µM, first compound 0.000316 µM): 80%; viability, T/C (second compound 0.316 µM, first compound 0.001 µM): 84.5%; viability, T/C [33]: 86.1%; viability, T/C [34]: 80.4%; viability, T/C (second compound 1 µM, first compound 0.000316 µM): 88.5%; viability, T/C (second compound 1 µM, first compound 0.001 µM): 92.2%; viability, T/C [35]: 86.6%; viability, T/C [36]: 89.1%; viability, T/C (second compound 3.16 µM, first compound 0.000316 µM): 87.5%; viability, T/C (second compound 3.16 µM, first compound 0.001 µM): 86.5%; viability, T/C [37]: 91.7%; viability, T/C [38]: 89.7%; viability, T/C (second compound 10 µM, first compound 0.000316 µM): 80.9%; viability, T/C (second compound 10 µM, first compound 0.001 µM): 84.7%; viability, T/C [39]: 72.6%; viability, T/C [40]: 77.7%"
